Reference: patent publication US20210380946A1 (priority 2018, published 2021)

Assay: Clinical trial: neutropenia, thrombocytopenia and toxicity post-melphalan reduced-intensity conditioning
Conditions: for Days ANC >500 (Absolute Neutrophil Count) / Days Platelets <50: 140 mg/m^2 melphalan single dose

## N[C@@H](Cc1ccc(N(CCCl)CCCl)cc1)C(=O)O [Melphalan, melphalan]
Subject 1
  Days ANC >500 (Absolute Neutrophil Count): 9 days
  Days Platelets <50: 13 days
Subject 2
  Days ANC >500 (Absolute Neutrophil Count): 7 days
  Days Platelets <50: 8 days
Both subjects
  chemotherapy related toxicity: cytopenia: temporary cytopenia
  chemotherapy related toxicity: transaminases: temporary mild evelvations in transaminases
Both subjects, follow-up 1 year and 6 months
  chemotherapy related toxicity: mucositis: 2-3 grade
